Data: ChEMBL document CHEMBL3856242, “Bioactive diterpenoids from Trigonostemon chinensis: Structures, NO inhibitory activities, and interactions with iNOS” (Bioorg Med Chem Lett, 2016)

How the values were obtained:
Mus musculus = species on record: Mus musculus; test: Cytotoxicity against mouse BV2 cells at IC50 by MTT assay; format: toxicity, cell-based; conditions: bv-2
[1] = target: T1, Nitric oxide synthase, inducible (Mus musculus, UniProt P29477); test: Inhibition of iNOS in mouse BV2 cells assessed as inhibition of LPS-induced NO production after 20 hrs by Griess reaction; format: cell-based, BV-2
T1 sequence (P29477 whole entry): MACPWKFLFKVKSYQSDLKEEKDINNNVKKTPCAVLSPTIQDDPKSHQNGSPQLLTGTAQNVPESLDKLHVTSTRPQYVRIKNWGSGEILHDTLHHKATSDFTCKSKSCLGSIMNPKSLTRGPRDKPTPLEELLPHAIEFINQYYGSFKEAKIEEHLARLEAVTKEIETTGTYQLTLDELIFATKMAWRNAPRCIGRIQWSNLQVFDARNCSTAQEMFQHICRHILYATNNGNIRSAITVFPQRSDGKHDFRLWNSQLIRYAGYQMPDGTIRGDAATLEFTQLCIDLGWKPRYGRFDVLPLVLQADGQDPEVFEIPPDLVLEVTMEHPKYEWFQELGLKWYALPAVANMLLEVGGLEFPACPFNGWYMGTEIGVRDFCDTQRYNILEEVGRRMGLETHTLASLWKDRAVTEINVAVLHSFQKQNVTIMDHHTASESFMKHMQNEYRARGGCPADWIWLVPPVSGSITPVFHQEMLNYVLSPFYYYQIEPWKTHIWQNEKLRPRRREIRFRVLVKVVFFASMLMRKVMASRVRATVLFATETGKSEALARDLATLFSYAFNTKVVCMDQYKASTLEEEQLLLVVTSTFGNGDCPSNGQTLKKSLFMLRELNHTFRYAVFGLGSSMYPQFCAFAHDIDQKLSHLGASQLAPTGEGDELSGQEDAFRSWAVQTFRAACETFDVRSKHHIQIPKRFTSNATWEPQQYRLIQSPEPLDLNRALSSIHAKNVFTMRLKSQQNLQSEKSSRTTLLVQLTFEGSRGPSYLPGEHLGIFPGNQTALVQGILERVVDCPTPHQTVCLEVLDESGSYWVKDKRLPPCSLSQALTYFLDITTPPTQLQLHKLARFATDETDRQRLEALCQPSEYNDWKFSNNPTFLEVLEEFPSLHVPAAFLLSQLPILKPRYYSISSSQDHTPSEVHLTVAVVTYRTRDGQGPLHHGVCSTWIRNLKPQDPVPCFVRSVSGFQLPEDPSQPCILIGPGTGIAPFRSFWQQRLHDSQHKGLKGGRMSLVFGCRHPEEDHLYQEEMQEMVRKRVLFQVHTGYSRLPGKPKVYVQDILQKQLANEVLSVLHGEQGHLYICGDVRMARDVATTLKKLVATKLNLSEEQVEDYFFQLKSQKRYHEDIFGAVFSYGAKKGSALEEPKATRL

Compound	Activity (Mus musculus)	IC50 [1] [µM]
CSC(=N)N.O=S(=O)(O)O	Non-Toxic	1.8
C=C(C)[C@@]1(OC(C)=O)[C@H](OC(C)=O)[C@@H]2[C@H](OC(C)=O)[C@@]3(C)O[C@@]4([C@@H]3OC(=O)c3ccccc3)[C@@H](OC(C)=O)[C@@H](C)C[C@H]4[C@@]2(O)[C@H](C)[C@@H]1OC(=O)c1ccccc1	Non-Toxic	7.5
Cc1cc2c(cc1O)[C@@]1(C)CC[C@H](O)C(C)(C)[C@@H]1CC2	Non-Toxic	5.9
C=C(C)[C@@]1(O)[C@@H]2OC3(c4ccccc4)O[C@H]1[C@@H](C)[C@@]1(O3)[C@H]2[C@H](O)[C@@](C)(OC(=O)c2ccccc2)[C@@H](OC(C)=O)[C@@]2(O)[C@H]1C[C@H](C)[C@@H]2O	Non-Toxic	> 30
C=C(C)[C@@]1(OC(=O)c2ccccc2)[C@H](OC(C)=O)[C@@H]2[C@H](OC(C)=O)[C@@]3(C)O[C@@]4([C@@H]3OC(=O)c3ccccc3)[C@@H](OC(C)=O)[C@@H](C)C[C@H]4[C@@]2(O)[C@H](C)[C@@H]1OC(C)=O	Non-Toxic	13.4
Cc1cc2c(cc1O)C=C1CC[C@H](O)C(C)(C)[C@@H]1CC2	Non-Toxic	3.8
C=C(C)[C@@]1(O)[C@@H]2OC3(c4ccccc4)O[C@H]1[C@@H](C)[C@@]1(O3)[C@H]2[C@H](OC(C)=O)[C@@](C)(OC(=O)c2ccccc2)[C@@H](OC(C)=O)[C@@]2(O)[C@H]1C[C@H](C)[C@@H]2O	Non-Toxic	10.2
